Results from ChEMBL document CHEMBL1201862, “PubChem BioAssay data set” (2004).
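Tested at 5 concentrations; 48 h exposure; 96-well plates; endpoints linearly interpolated, else capped at highest concentration. GI50: concentration for 50% inhibition of growth.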 Activity calls are given as the source filed them. No stated cut-off is given here; in the data, active = GI50 up to about 1.1 µM and inactive = higher.

Experiments:
Assay in all cases: growth of human tumour cells (NCI), 48 h
786-0 = system: 786-0
A549 = system: A549
ACHN = system: ACHN
COLO 205 = system: COLO 205
HOP-18 = system: HOP-18
HOP-92 = system: HOP-92
IGROV-1 = system: IGROV-1
Malme-3M = system: Malme-3M
SK-MEL-2 = system: SK-MEL-2
SK-MEL-5 = system: SK-MEL-5
SK-OV-3 = system: SK-OV-3
SNB-19 = system: SNB-19
UACC-62 = system: UACC-62
UO-31 = system: UO-31
HCT-116 = system: HCT-116
OVCAR-8 = system: OVCAR-8
SNB-75 = system: SNB-75
BT-549 = system: BT-549
MDA-N = system: MDA-N
NCI/ADR-RES = system: NCI/ADR-RES

CC(=O)C1=C(O)C2C3c4c[nH]c5cccc(c45)CC3C(C)(C)N2C1=O (configuration not stated)
GI50 (786-0): 19.3 µM (inactive) | GI50 (A549): 28.7 µM (inactive) | GI50 (ACHN): 28.2 µM (inactive) | GI50 (COLO 205): > 100 µM (inactive) | GI50 (HOP-18): 21.2 µM (inactive) | GI50 (HOP-92): > 100 µM (inactive) | GI50 (IGROV-1): > 100 µM (inactive) | GI50 (Malme-3M): 33.9 µM (inactive) | GI50 (SK-MEL-2): 13.1 µM (inactive) | GI50 (SK-MEL-5): 11.7 µM (inactive) | GI50 (SK-OV-3): > 100 µM (inactive) | GI50 (SNB-19): 15.4 µM (inactive) | GI50 (UACC-62): 44.1 µM (inactive) | GI50 (UO-31): 25.6 µM (inactive)

CC(N)Cc1cccc(C(F)(F)F)c1 (configuration not stated)
GI50 (786-0): > 100 µM (inactive) | GI50 (A549): > 100 µM (inactive) | GI50 (ACHN): > 100 µM (inactive) | GI50 (COLO 205): > 100 µM (inactive) | GI50 (HCT-116): > 100 µM (inactive) | GI50 (HOP-18): > 100 µM (inactive) | GI50 (HOP-92): > 100 µM (inactive) | GI50 (IGROV-1): > 100 µM (inactive) | GI50 (Malme-3M): > 100 µM (inactive) | GI50 (OVCAR-8): > 100 µM (inactive) | GI50 (SK-MEL-2): > 100 µM (inactive) | GI50 (SK-MEL-5): > 100 µM (inactive) | GI50 (SK-OV-3): > 100 µM (inactive) | GI50 (SNB-19): > 100 µM (inactive) | GI50 (SNB-75): > 100 µM (inactive) | GI50 (UACC-62): > 100 µM (inactive) | GI50 (UO-31): > 100 µM (inactive)

CN(C)CCNC(=O)c1cccc2c(Nc3ccc(S(N)(=O)=O)cc3)c3ccccc3nc12
GI50 (786-0): 1.09 µM (active) | GI50 (A549): 1.79 µM (inactive) | GI50 (ACHN): 1.47 µM (inactive) | GI50 (COLO 205): 0.391 µM (active) | GI50 (HCT-116): 0.356 µM (active) | GI50 (HOP-18): 2.71 µM (inactive) | GI50 (HOP-92): 1.32 µM (inactive) | GI50 (IGROV-1): 2.18 µM (inactive) | GI50 (Malme-3M): 1.49 µM (inactive) | GI50 (OVCAR-8): 0.435 µM (active) | GI50 (SK-MEL-2): 1.59 µM (inactive) | GI50 (SK-MEL-5): 1.67 µM (inactive) | GI50 (SK-OV-3): 0.376 µM (active) | GI50 (SNB-19): 1.05 µM (active) | GI50 (SNB-75): 1.26 µM (inactive) | GI50 (UACC-62): 1.42 µM (inactive) | GI50 (UO-31): 1.87 µM (inactive)

COc1ccc(CNc2nc3ccc(C(F)(F)F)cc3nc2-c2ccccc2)cc1OC
GI50 (786-0): > 10 µM (inactive) | GI50 (A549): 31.3 µM (inactive) | GI50 (ACHN): 27.7 µM (inactive) | GI50 (COLO 205): 6.41 µM (inactive) | GI50 (HCT-116): 20.7 µM (inactive) | GI50 (HOP-18): > 100 µM (inactive) | GI50 (HOP-92): 2.9 µM (inactive) | GI50 (Malme-3M): 73.5 µM (inactive) | GI50 (OVCAR-8): > 100 µM (inactive) | GI50 (SK-MEL-2): > 100 µM (inactive) | GI50 (SK-OV-3): > 100 µM (inactive) | GI50 (SNB-19): > 100 µM (inactive) | GI50 (SNB-75): 11 µM (inactive) | GI50 (UACC-62): 30.1 µM (inactive) | GI50 (UO-31): 47.6 µM (inactive)

C[C@@]12[Se]c3ccccc3[C@]1(C)[Se]c1ccccc12
GI50 (786-0): 4.85 µM (inactive) | GI50 (ACHN): > 100 µM (inactive) | GI50 (COLO 205): 3.73 µM (inactive) | GI50 (HCT-116): > 100 µM (inactive) | GI50 (HOP-18): > 100 µM (inactive) | GI50 (HOP-92): 4.79 µM (inactive) | GI50 (Malme-3M): > 100 µM (inactive) | GI50 (OVCAR-8): > 100 µM (inactive) | GI50 (SK-MEL-2): 3.85 µM (inactive) | GI50 (SK-MEL-5): 4.21 µM (inactive) | GI50 (SNB-75): 2.57 µM (inactive) | GI50 (UACC-62): 2.23 µM (inactive)

N#CC12C3C4CC5C6C4C1C6C(O)(C53)N2Cc1ccccc1 (configuration not stated)
GI50 (786-0): > 100 µM (inactive) | GI50 (A549): > 100 µM (inactive) | GI50 (ACHN): > 100 µM (inactive) | GI50 (COLO 205): > 100 µM (inactive) | GI50 (HCT-116): > 100 µM (inactive) | GI50 (HOP-18): > 100 µM (inactive) | GI50 (HOP-92): > 100 µM (inactive) | GI50 (IGROV-1): > 100 µM (inactive) | GI50 (Malme-3M): > 100 µM (inactive) | GI50 (OVCAR-8): > 100 µM (inactive) | GI50 (SK-MEL-2): > 100 µM (inactive) | GI50 (SK-MEL-5): > 100 µM (inactive) | GI50 (SK-OV-3): > 100 µM (inactive) | GI50 (SNB-19): > 100 µM (inactive) | GI50 (SNB-75): > 100 µM (inactive) | GI50 (UACC-62): > 100 µM (inactive) | GI50 (UO-31): > 100 µM (inactive)

COc1ccc(C[C@@H]2NC[C@@H](O)[C@@H]2OC(C)=O)cc1
GI50 (786-0): 0.0219 µM (active) | GI50 (A549): 0.0316 µM (active) | GI50 (ACHN): 0.011 µM (active) | GI50 (BT-549): 0.0329 µM (active) | GI50 (COLO 205): 0.0102 µM (active) | GI50 (HCT-116): 0.0103 µM (active) | GI50 (HOP-18): 1.73 µM (inactive) | GI50 (HOP-92): 0.00618 µM (active) | GI50 (IGROV-1): 0.0435 µM (active) | GI50 (MDA-N): 0.0212 µM (active) | GI50 (Malme-3M): 0.0385 µM (active) | GI50 (NCI/ADR-RES): 0.0001 µM (active) | GI50 (OVCAR-8): 0.0189 µM (active) | GI50 (SK-MEL-2): 0.039 µM (active) | GI50 (SK-MEL-5): 0.0104 µM (active) | GI50 (SK-OV-3): 0.0169 µM (active) | GI50 (SNB-19): 0.0228 µM (active) | GI50 (SNB-75): 0.0132 µM (active) | GI50 (UACC-62): 0.015 µM (active) | GI50 (UO-31): 0.0247 µM (active)

COc1ccc2c(c1)Cc1c-2[nH]c2cc3c(cc2c1=O)OCO3
GI50 (786-0): 20.2 µM (inactive) | GI50 (A549): 7.31 µM (inactive) | GI50 (ACHN): 7.94 µM (inactive) | GI50 (COLO 205): 12 µM (inactive) | GI50 (HCT-116): 6.56 µM (inactive) | GI50 (HOP-18): 17.5 µM (inactive) | GI50 (HOP-92): 17.7 µM (inactive) | GI50 (IGROV-1): 16.9 µM (inactive) | GI50 (Malme-3M): 13.7 µM (inactive) | GI50 (OVCAR-8): 19.1 µM (inactive) | GI50 (SK-MEL-2): 6.14 µM (inactive) | GI50 (SK-MEL-5): 6.21 µM (inactive) | GI50 (SK-OV-3): 22.3 µM (inactive) | GI50 (SNB-19): 23 µM (inactive) | GI50 (UACC-62): 10.4 µM (inactive) | GI50 (UO-31): 15.8 µM (inactive)

CCCCCCCCCCCCCCCCCC(CCCCCCCCCCCCCCCCC)OP(=O)(O)O
GI50 (786-0): > 100 µM (inactive) | GI50 (A549): > 100 µM (inactive) | GI50 (ACHN): > 100 µM (inactive) | GI50 (COLO 205): > 100 µM (inactive) | GI50 (HCT-116): > 100 µM (inactive) | GI50 (HOP-18): > 100 µM (inactive) | GI50 (HOP-92): > 100 µM (inactive) | GI50 (IGROV-1): > 100 µM (inactive) | GI50 (Malme-3M): > 100 µM (inactive) | GI50 (OVCAR-8): > 100 µM (inactive) | GI50 (SK-MEL-2): > 100 µM (inactive) | GI50 (SK-MEL-5): > 100 µM (inactive) | GI50 (SK-OV-3): > 100 µM (inactive) | GI50 (SNB-19): > 100 µM (inactive) | GI50 (SNB-75): > 100 µM (inactive) | GI50 (UACC-62): > 100 µM (inactive) | GI50 (UO-31): > 100 µM (inactive)

Cc1ccc2c(c1)c(=O)c1c(NCCN(C)C)ccc3nnn2c31
GI50 (786-0): 3.35 µM (inactive) | GI50 (A549): 2.83 µM (inactive) | GI50 (ACHN): 3.06 µM (inactive) | GI50 (COLO 205): 1.9 µM (inactive) | GI50 (HCT-116): 2.63 µM (inactive) | GI50 (HOP-18): 9.93 µM (inactive) | GI50 (HOP-92): 2.36 µM (inactive) | GI50 (IGROV-1): 4.33 µM (inactive) | GI50 (Malme-3M): 3.82 µM (inactive) | GI50 (OVCAR-8): 2.98 µM (inactive) | GI50 (SK-MEL-2): 8.04 µM (inactive) | GI50 (SK-MEL-5): 3.06 µM (inactive) | GI50 (SK-OV-3): 3.56 µM (inactive) | GI50 (SNB-19): 6.34 µM (inactive) | GI50 (SNB-75): 4.6 µM (inactive) | GI50 (UACC-62): 6.44 µM (inactive) | GI50 (UO-31): 3.56 µM (inactive)
